The source of these data is patent US10214492B2, “Heterocyclic inhibitors of MCT4” (Vettore, LLC, priority 2016, dated 2019).

For one assay, the target named is MCT4 (Homo sapiens (Human), UniProt O15427). In words: Assay 3: MCT4-mediated lactate transport in MDA-MB-231 breast cancer cells. Particulars: MDA-MB-231 cells; lactate transport. It is filed as cell-based. As for the experimental part:
(§1) 10 μL of a 30 mM DMSO stock of BCECF-AM ester (Life Technologies) is added and the cells are incubated at 37° C. for 5 min. The cells are pelleted (300 g, 5 min), washed once with 1 mL Tyrode's Solution, pH 7.4, re-pelleted (300 g, 5 min), and resuspended in 1 mL Tyrode's Solution, pH 7.4.
MCT4 activity may be assessed by monitoring the intracellular pH change that accompanies lactate/proton symport, using the pH-sensitive fluorescent dye 2′,7′-bis-(carboxyethyl)-5(6)-carboxyfluorescein (BCECF), in a manner similar to that previously reported for MCT1 and MCT4. The following is an exemplary procedure for assaying MCT4 activity of the compounds of Formula (I).

The next assay concerns the target MCT1 (Homo sapiens (Human), UniProt P53985). In words: Assay 4: MCT1-mediated lactate transport in BT20 breast cancer cells. It is filed as cell-based. The settings on record: Table 27. How it is done:
as §1
Assay 4: MCT1-Mediated Lactate Transport in BT20 Breast Cancer Cells.
Preparation of BCECF loaded cells are as described for Assay 1. Lactate transport assay is as described for Assay 1, except 10 mM L-lactate (rather than 50 mM) is added.

Sequence of MCT4 (O15427 whole entry, looked up): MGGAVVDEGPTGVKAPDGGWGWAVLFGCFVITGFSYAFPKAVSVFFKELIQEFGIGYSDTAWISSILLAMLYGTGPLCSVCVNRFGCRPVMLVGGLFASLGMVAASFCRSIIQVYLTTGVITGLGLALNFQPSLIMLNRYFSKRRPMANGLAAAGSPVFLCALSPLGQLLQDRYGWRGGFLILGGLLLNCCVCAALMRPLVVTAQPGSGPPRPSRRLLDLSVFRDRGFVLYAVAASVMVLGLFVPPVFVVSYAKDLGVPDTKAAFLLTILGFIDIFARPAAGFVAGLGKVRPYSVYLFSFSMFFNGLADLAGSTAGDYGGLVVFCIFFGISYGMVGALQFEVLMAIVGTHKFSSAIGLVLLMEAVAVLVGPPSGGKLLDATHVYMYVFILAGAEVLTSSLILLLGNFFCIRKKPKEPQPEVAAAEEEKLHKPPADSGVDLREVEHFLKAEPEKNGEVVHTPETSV
Sequence of MCT4 (P35613 whole entry partner, looked up): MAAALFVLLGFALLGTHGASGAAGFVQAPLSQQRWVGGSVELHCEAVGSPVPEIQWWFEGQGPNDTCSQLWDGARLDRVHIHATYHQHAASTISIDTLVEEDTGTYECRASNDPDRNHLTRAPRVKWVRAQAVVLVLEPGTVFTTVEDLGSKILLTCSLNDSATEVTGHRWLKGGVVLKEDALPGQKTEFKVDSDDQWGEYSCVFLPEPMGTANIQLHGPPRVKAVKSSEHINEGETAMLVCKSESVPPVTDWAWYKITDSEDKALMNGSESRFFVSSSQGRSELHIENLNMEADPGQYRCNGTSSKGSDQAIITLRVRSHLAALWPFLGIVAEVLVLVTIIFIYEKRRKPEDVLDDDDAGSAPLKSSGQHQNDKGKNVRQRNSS
Sequence of MCT1 (P53985 whole entry): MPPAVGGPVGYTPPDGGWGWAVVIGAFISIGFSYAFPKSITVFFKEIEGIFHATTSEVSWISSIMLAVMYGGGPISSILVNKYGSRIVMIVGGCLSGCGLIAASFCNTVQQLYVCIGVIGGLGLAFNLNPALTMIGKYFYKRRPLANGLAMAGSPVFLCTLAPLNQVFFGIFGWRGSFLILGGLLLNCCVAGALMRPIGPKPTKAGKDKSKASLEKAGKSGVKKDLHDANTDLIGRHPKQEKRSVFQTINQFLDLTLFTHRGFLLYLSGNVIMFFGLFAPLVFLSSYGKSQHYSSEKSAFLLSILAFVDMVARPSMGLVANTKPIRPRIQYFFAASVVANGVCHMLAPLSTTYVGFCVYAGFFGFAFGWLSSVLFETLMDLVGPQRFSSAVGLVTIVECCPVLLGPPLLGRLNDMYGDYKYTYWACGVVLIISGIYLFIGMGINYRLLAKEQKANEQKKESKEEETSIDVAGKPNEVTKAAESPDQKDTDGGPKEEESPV
Sequence of MCT1 (P35613 140-385 partner): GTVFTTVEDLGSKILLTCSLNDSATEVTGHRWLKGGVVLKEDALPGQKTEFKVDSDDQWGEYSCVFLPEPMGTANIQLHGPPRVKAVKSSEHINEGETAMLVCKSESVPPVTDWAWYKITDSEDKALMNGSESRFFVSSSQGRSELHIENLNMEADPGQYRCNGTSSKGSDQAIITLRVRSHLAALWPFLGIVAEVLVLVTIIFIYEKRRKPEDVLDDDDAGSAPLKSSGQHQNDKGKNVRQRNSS

Take `CC(C)(OCc1cc(-c2cccc(OC3CC3)c2)n(-c2ccccc2Br)n1)C(=O)O` [Example 182, 2-([1-(2-Bromophenyl)-5-(3-cyclopropoxy-phenyl)-1H-pyrazol-3-yl]methoxy)-2-methylpropanoic acid]: the IC50 (usually the point on the concentration scale where inhibition reaches its midpoint) at MCT4 was determined as 5.9 nM; against MCT1, 12000 nM.

Consider `CC(C)(OCc1cc(-c2cccc(OC3CC3)c2)n(-c2ccc(Cl)cc2Cl)n1)C(=O)O` [Example 184, 2-([5-(3-Cyclopropoxyphenyl)-1-(2,4-dichlorophenyl)-1H-pyrazol-3-yl]methoxy)-2-methylpropanoic acid], for which the IC50 at MCT4 is 22 nM; on MCT1, > 33000 nM.

In the case of `CC(C)(OCc1cc(-c2cccc(OC3CC3)c2)n(-c2cc(Cl)ccc2Cl)n1)C(=O)O` [Example 185, 2-([5-(3-Cyclopropoxyphenyl)-1-(2,5-dichlorophenyl)-1H-pyrazol-3-yl]methoxy)-2-methylpropanoic acid], the IC50 on MCT4 stood at 9.3 nM; against MCT1, 17000 nM.

Regarding `CC(C)(OCc1cc(-c2cccc(OC3CC3)c2)n(-c2ccccc2OC(F)F)n1)C(=O)O` [Example 186, 2-([5-(3-Cyclopropoxyphenyl)-1-[2-(difluoromethoxy)phenyl]-1H-pyrazol-3-yl]-methoxy)-2-methylpropanoic acid], the IC50 against MCT4 is 21.5 nM; on MCT1, 90000 nM.

Take `CCOc1ccccc1-n1nc(COC(C)(C)C(=O)O)cc1-c1cccc(OC2CC2)c1` [Example 187, 2-([5-(3-cyclopropoxyphenyl)-1-(2-ethoxy-phenyl)-1H-pyrazol-3-yl]methoxy)-2-methylpropanoic acid]: the IC50 stood at 43 nM on MCT4 and 63000 nM against MCT1.

Consider `CC(C)c1ccccc1-n1nc(COC(C)(C)C(=O)O)cc1-c1cccc(OC2CC2)c1` [Example 189, 2-([5-(3-cyclopropoxyphenyl)-1-[2-(propan-2-yl)phenyl]-1H-pyrazol-3-yl]methoxy)-2-methylpropanoic acid], for which the figures for the IC50 at MCT4 and against MCT1 were 18 nM and 22000 nM, respectively.

As for `CC(C)(OCc1cc(-c2cccc(OC3CC3)c2)n(-c2ccccc2C(F)(F)F)n1)C(=O)O` [Example 190, 2-([5-(3-Cyclopropoxyphenyl)-1-[2-(trifluoromethyl)phenyl]-1H-pyrazol-3-yl]-methoxy)-2-methylpropanoic acid], the results for the half-maximal inhibitory concentration (IC50) at MCT4 and on MCT1 were 7.8 nM and 31000 nM, respectively.

For `CCn1ncc2cccc(-n3nc(COC(C)(C)C(=O)O)cc3-c3cccc(OC4CC4)c3)c21` [Example 193, 2-([5-(3-Cyclopropoxyphenyl)-1-(1-ethyl-1H-indazol-7-yl)-1H-pyrazol-3-yl]-methoxy)-2-methylpropanoic acid], the IC50 against MCT4 was 18 nM; on MCT1, 38000 nM.

Consider `Cn1cnc2cccc(-n3nc(COC(C)(C)C(=O)O)cc3-c3cccc(OC4CC4)c3)c21` [Example 194, 2-([5-(3-Cyclopropoxyphenyl)-1-(1-methyl-1H-1,3-benzodiazol-7-yl)-1H-pyrazol-3-yl]-methoxy)-2-methylpropanoic acid], for which the 50% inhibitory concentration (IC50) against MCT4 was 3500 nM; on MCT1 it was > 100000 nM.

Consider `CC(C)(OCc1cc(-c2cc3ccccc3s2)n(Cc2ccccc2Cl)n1)C(=O)O` [Example 195], for which the figures for the IC50 against MCT4 and against MCT1 were 5.3 nM and 13000 nM, respectively.

Regarding `CCOc1cccc(-c2cc(COC(C)(C)C(=O)O)nn2Cc2ccccc2OCC)c1` [Example 199, 2-([5-(3-Ethoxyphenyl)-1-[(2-ethoxy-phenyl)methyl]-1H-pyrazol-3-yl]methoxy)-2-methylpropanoic acid], the IC50 was determined as 9.6 nM against MCT4 and 34000 nM against MCT1.

Regarding `CCOc1cc(OC)cc(-c2cc(COC(C)(C)C(=O)O)nn2Cc2ccccc2OCC)c1` [Example 200, 2-([5-(3-Ethoxy-5-methoxyphenyl)-1-[(2-ethoxyphenyl)methyl]-1H-pyrazol-3-yl]-methoxy)-2-methylpropanoic acid], the IC50 against MCT4 was determined as 1.9 nM; on MCT1 it was 17000 nM.

On to `CC(C)(OCc1cc(-c2ccc3c(c2)OCCO3)n(Cc2ccccc2Cl)n1)C(=O)O` [Example 203, 2-([1-[(2-Chlorophenyl)methyl]-5-(2,3-dihydro-1,4-benzodioxin-6-yl)-1H-pyrazol-3-yl]methoxy)-2-methylpropanoic acid], for which the IC50 was 185 nM against MCT4 and 93000 nM against MCT1.

`CC(C)(OCc1cc(-c2ccc3c(c2)OCO3)n(Cc2ccccc2Cl)n1)C(=O)O` [Example 204, [[5-(2H-1,3-Benzodioxol-5-yl)-1-[(2-chloro-phenyl)methyl]-1H-pyrazol-3-yl]methoxy)-2-methylpropanoic acid]: the IC50 on MCT4 is 40 nM; against MCT1, > 100000 nM.

`Cn1cc(-c2cc(COC(C)(C)C(=O)O)nn2Cc2ccccc2Cl)cn1` [Example 205, 2-([1-[(2-Chlorophenyl)methyl]-5-(1-methyl-1H-pyrazol-4-yl)-1H-pyrazol-3-yl]-methoxy)-2-methylpropanoic acid]: the values for the IC50 on MCT4 and against MCT1 were 890 nM and > 100000 nM, respectively.

Turning to `CCOc1ccccc1Cn1nc(COC(C)(C)C(=O)O)cc1-c1ccc2cnn(C)c2c1` [Example 207, 2-([1-[(2-Ethoxyphenyl)methyl]-5-(1-methyl-1H-indazol-6-yl)-lH-pyrazol-3-yl]-methoxy)-2-methylpropanoic acid], the IC50 was 15 nM on MCT4 and 3200 nM on MCT1.

Consider `CCOc1cc(OCC)cc(-c2cc(COC(C)(C)C(=O)O)nn2Cc2ccccc2OCC)c1` [Example 208, 2-([5-(3,5-Diethoxyphenyl)-1-[(2-ethoxy-phenyl)methyl]-1H-pyrazol-3-yl]methoxy)-2-methylpropanoic acid], for which the values for the IC50 on MCT4 and at MCT1 were 7.5 nM and 17000 nM, respectively.

Take `Cn1ncc2cc(-c3cc(COC(C)(C)C(=O)O)nn3Cc3ccccc3Cl)ccc21` [Example 209, 2-([1-[(2-Chlorophenyl)methyl]-5-(1-methyl-1H-indazol-5-yl)-1H-pyrazol-3-yl]-methoxy)-2-methyl propanoic acid]: the IC50 against MCT4 worked out at 31 nM; on MCT1, 95000 nM.

Consider `CCOc1ccccc1Cn1nc(COC(C)(C)C(=O)O)cc1-c1cccc(OC2CCC2)c1` [Example 210, 2-([5-(3-cyclobutoxyphenyl)-1-[(2-ethoxy-phenyl)methyl]-1H-pyrazol-3-yl]methoxy)-2-methylpropanoic acid], for which the IC50 came to 2.4 nM against MCT4 and 7300 nM against MCT1.

For the compound `COc1cc(OC)cc(-c2cc(COC(C)(C)C(=O)O)nn2CCc2ccccc2)c1` [Example 212, 2-([5-(3,5-Dimethoxyphenyl)-1-(2-phenyl-ethyl)-1H-pyrazol-3-yl]methoxy)-2-methylpropanoic acid], the IC50 against MCT4 is 195 nM; against MCT1, > 100000 nM.

For the compound `CCOc1cc(OCC)cc(-c2cc(COC(C)(C)C(=O)O)nn2Cc2ccccc2Cl)c1` [Example 213, 2-([1-[(2-Chlorophenyl)methyl]-5-(3,5-diethoxyphenyl)-1H-pyrazol-3-yl]methoxy)-2-methylpropanoic acid], the IC50 on MCT4 was 12 nM; against MCT1 it was 12000 nM.

For the compound `CN(C)c1ccccc1Cn1nc(COC(C)(C)C(=O)O)cc1-c1cccc(OC2CC2)c1` [Example 214, 2-([5-(3-Cyclopropoxyphenyl)-1-[[2-(dimethylamino)phenyl)methyl]-1H-pyrazol-3-yl]methoxy)-2-methylpropanoic acid], the IC50 against MCT4 was 6 nM; at MCT1, 94000 nM.

For `COc1cccc(-c2cc(COC(C)(C)C(=O)O)nn2-c2ccccc2OC(C)C)c1` [Example 215, 2-([5-(3-Methoxyphenyl)-1-[2-(propan-2-yloxy)phenyl]-l//-pyrazol-3-yl]mcthoxy)-2-methylpropanoic acid], the IC50 against MCT4 is 360 nM; against MCT1 it was > 100000 nM.

Consider `CC[C@@](C)(OCc1cc(-c2cccc(OC3CC3)c2)n(-c2cccc3cnn(C)c23)n1)C(=O)O` [Example 217, (2R)-2-([5-(3-cyclopropoxyphenyl)-1-(1-methyl-1H-indazol-7-yl)-1H-pyrazol-3-yl]methoxy)-2-methylbutanoic acid], for which the concentration for half-maximal inhibition (IC50) amounted to 8.7 nM on MCT4 and 18000 nM on MCT1.

For `CC[C@](C)(OCc1cc(-c2cccc(OC)c2)n(Cc2ccccc2Cl)n1)C(=O)O` [Example 218, (2S)-2-([1-[(2-chlorophenyl)methyl]-5-(3-methoxyphenyl)-1H-pyrazol-3-yl]methoxy)-2-methylbutanoic acid], the values for the IC50 at MCT4 and on MCT1 were 7.5 nM and 22000 nM, respectively.

In the case of `CC[C@@](C)(OCc1cc(-c2cccc(OC)c2)n(Cc2ccccc2Cl)n1)C(=O)O` [Example 219, (2R)-2-([1-[(2-chlorophenyl)methyl]-5-(3-methoxyphenyl)-1H-pyrazol-3-yl]methoxy)-2-methylbutanoic acid], the IC50 against MCT4 was found to be 4 nM; at MCT1, 14000 nM.

As for `CC[C@@](C)(OCc1cc(-c2cccc(OCC(C)(C)C)c2)n(-c2cccc3cnn(C)c23)n1)C(=O)O` [Example 223, (2R)-2-([5-[3-(2,2-Dimethyl-propoxy)phenyl]-1-(1-methyl-1H-indazol-7-yl)-1H-pyrazol-3-yl]methoxy)-2-methyl-butanoic acid], the IC50 against MCT4 came out at 0.3 nM; on MCT1 it was 21000 nM.

As to `CC(C)Oc1ncc(-c2cc(COC(C)(C)C(=O)O)nn2Cc2ccccc2Cl)o1` [Example 227, 2-([1-[(2-Chlorophenyl)methyl]-5-[2-(propan-2-yloxy)-1,3-oxazol-5-yl]-1H-pyrazol-3-yl)methoxy)-2-methylpropanoic acid], the values for the IC50 at MCT4 and on MCT1 were 690 nM and 37000 nM, respectively.
